Reference: patent publication US9644240B2, “Disease susceptibility” (Leiden University, priority 2009, dated 2017)
Substitutions are numbered along the chain they refer to.

How the values were obtained:
[1] = tested on: four MR haplotypes; test: Ligand induced transactivation on a TAT-3 promoter in Cos-1 cells, comparison among haplotypes; assay type: cell-based, human; settings: for difference in transactivation responses among the four MR haplotypes: reporter (fluc)/control (rluc) ratios, three experiments pooled
Protocol: (§1) Cos-1 cells (African green monkey kidney cells) were cultured in DMEM high glucose supplemented with 10% FCS (Gibco, Paisley, UK). Cells were seeded in 24-well plates (Greiner Bio-One, Alphen a/d Rijn, The Netherlands) at 3×10^4 cells/well in DMEM supplemented with charcoal-stripped serum. The cells were transfected the next day using SuperFect (Qiagen, Venlo, The Netherlands). hMR plasmids and the reporter plasmid TAT3-Luc (tyrosine amino transferase triple hormone response element) were used at 100 ng/well. The control plasmid pCMV-R (Promega, Leiden, The Netherlands) coding for Renilla luciferase controlled by cytomegalovirus (CMV) promoter was used (10 ng/well). One day after transfection, the cells were treated with cortisol (Sigma-Aldrich, Zwijndrecht, the Netherlands) in concentrations ranging from 0 to 10^−8 M. After 24 h of incubation the cells were harvested in passive lyses buffer (Promega) and firefly and Renilla luciferase activity was determined using a dual label reporter assay (Promega) and a luminometer (CENTRO XS3 LB960, Berthold, Bad Wildbad, Germany). Three separate experiments were performed and all three experiments were performed in triplicate.
(§2) The in vitro experiments were analyzed using GraphPad prism 4 (GraphPad software Inc, San Diego, Calif.). In the transactivation assays firefly/renilla luciferase ratios were normalized against the highest signal and background expression was subtracted. MR protein expression measured by western blot was normalized against γ-Tubulin. The differences between the four hMR variants were analyzed with one and two-way ANOVAs with Bonferroni posttests. In the radioligand binding assay one-binding-site curve fitting was used to determine the dissociation constant (Kd) and maximal binding (Bmax). The specific MR cortisol binding was obtained by subtracting the non-specific binding from the total binding. The difference in Kd and Bmax between MRI180 and MR180V was tested with a t-test. In vitro results are shown as the mean±SD.

[2] = biological target: T1, MR Hap 1 (GA) (Homo sapiens, UniProt P08235); test: Cortisol-induced transactivation assay, TAT3-Luc reporter in Cos-1 cells; assay type: cell-based; settings: TAT-3 promoter, 24 h, read-out: EC50 of cortisol-induced luciferase transcription
T1 construct: expressed in transfected cells; host or cells: Cos-1 cells (African green monkey kidney)
T1 sequence (P08235 1-984): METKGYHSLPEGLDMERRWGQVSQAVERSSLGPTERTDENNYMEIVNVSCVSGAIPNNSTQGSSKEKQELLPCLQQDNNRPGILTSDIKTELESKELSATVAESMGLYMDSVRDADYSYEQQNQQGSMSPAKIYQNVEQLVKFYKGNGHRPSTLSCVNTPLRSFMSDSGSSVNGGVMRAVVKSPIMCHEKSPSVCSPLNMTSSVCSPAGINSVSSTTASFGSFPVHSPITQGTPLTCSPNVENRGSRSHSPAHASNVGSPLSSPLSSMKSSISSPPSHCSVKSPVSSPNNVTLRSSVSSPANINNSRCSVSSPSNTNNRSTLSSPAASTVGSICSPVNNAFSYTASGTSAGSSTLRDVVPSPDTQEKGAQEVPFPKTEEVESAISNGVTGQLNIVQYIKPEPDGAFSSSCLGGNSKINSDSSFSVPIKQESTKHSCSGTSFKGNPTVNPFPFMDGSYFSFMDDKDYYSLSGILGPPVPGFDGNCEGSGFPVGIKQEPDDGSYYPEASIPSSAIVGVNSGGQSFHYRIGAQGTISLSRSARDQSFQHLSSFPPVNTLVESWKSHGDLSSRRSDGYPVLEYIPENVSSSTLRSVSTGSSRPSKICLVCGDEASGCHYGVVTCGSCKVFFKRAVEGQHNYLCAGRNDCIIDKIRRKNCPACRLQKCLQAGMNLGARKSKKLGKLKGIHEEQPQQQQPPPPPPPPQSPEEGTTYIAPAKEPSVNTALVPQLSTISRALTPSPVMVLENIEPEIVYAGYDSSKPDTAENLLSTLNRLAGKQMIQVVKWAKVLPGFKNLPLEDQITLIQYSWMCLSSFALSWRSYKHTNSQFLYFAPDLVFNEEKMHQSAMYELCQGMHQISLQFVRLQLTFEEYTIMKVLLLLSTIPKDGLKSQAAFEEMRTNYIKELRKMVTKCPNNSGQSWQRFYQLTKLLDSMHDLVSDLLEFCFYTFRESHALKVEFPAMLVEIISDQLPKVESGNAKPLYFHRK
Protocol: as §1
as §2, with “binding.” for “binding. The difference in Kd and Bmax between MRI180 and MR180V was tested with a t-test. In vitro results are shown as the mean±SD.”

[3] = biological target: T2, MR Hap 2 (CA) (Homo sapiens, UniProt P08235); test: as above; assay type: cell-based; settings: TAT-3 promoter, 24 h, read-out: EC50 of cortisol-induced luciferase transcription
T2 construct: expressed in transfected cells; host or cells: Cos-1 cells (African green monkey kidney)
T2 sequence (P08235 1-984): T1 sequence (P08235 1-984)
Protocol: as §1
as §2, with “binding.” for “binding. The difference in Kd and Bmax between MRI180 and MR180V was tested with a t-test. In vitro results are shown as the mean±SD.”

[4] = biological target: T3, MR Hap 3 (CG) (Homo sapiens, UniProt P08235); test: as above; assay type: cell-based; settings: TAT-3 promoter, 24 h, read-out: EC50 of cortisol-induced luciferase transcription
T3 construct: expressed in transfected cells; host or cells: Cos-1 cells (African green monkey kidney)
T3 sequence (P08235 1-984 V241A): T1 sequence (P08235 1-984) with V241A
Protocol: as §1
as §2, with “binding.” for “binding. The difference in Kd and Bmax between MRI180 and MR180V was tested with a t-test. In vitro results are shown as the mean±SD.”

[5] = biological target: T4, MR Hap 4 (GG) (Homo sapiens, UniProt P08235); test: as above; assay type: cell-based; settings: TAT-3 promoter, 24 h, read-out: EC50 of cortisol-induced luciferase transcription
T4 construct: expressed in transfected cells; host or cells: Cos-1 cells (African green monkey kidney)
T4 sequence (P08235 1-984 V241A): T1 sequence (P08235 1-984) with V241A
Protocol: as §1
as §2, with “binding.” for “binding. The difference in Kd and Bmax between MRI180 and MR180V was tested with a t-test. In vitro results are shown as the mean±SD.”

[6] = biological target: T5, MR180V (Homo sapiens, UniProt P08235); test: [3H]Cortisol ligand binding assay, cytosol of transfected Cos-1 cells; settings: mean±SD
T5 construct: expressed in transfected cells; host or cells: Cos-1 cells (African green monkey kidney)
T5 sequence (P08235 1-984): T1 sequence (P08235 1-984)
Protocol: (§3) Cos-1 cells were seeded in 20 cm plates (Greiner Bio-One, Alphen a/d Rijn, The Netherlands) at 2×10^6 cells/plate in DMEM supplemented with 5% charcoal-stripped serum. Cells were transfected the next day using Mirus Transit-COS reagent according to the manufacturer's protocol (Sopachem, Ochten, The Netherlands) and hMR plasmids were used at 30 μg/plate. After 24 hours medium was replaced with serum free DMEM and after another 24 hours cells were pelleted. All further steps are carried out at 0° C. Cells were resuspended in 3.5 ml buffer (5 mM Tris-HCl (pH 7.4), 1 mM EDTA, 1 mM B-Mercaptoethanol, 10 mM Na-Molybdate, 5% glycerol) per plate and 3×15 seconds homogenised using an electric homogenizer (Pro200, Pro scientific, Oxford, Conn., USA). The homogenate was centrifuged (100.000×g, 2° C.) to obtain cytosol.
(§4) 200 μl cytosol was incubated with [^3H]Cortisol (70 Ci/mmol, Amersham, Buckinghamshire, UK) to asses total binding or [^3H]Cortisol and a 500 fold excess of dexamethasone (Sigma-Aldrich, Zwijndrecht, the Netherlands) to asses non-specific binding. [^3H]Cortisol was used at 0.5 nM, 1 nM, 1.5 nM, 2.5 nM, 3.5 nM, 5 nM. After vortexing and 3 hours incubation on ice bound and free [^3H]Cortisol fractions were separated by Sephadex LH-20 as described previously (de Kloet et al., 1975). Fractions containing the receptor bound radioligand were collected, vortexed with 3 ml Ultima Gold scintillation fluid (Perkin Elmer, Waltham, Mass., USA) and radioactivity was measured in a liquid scintillation analyzer (1900CA Packard, Perkin Elmer). Three separate experiments were performed and all three experiments were performed in triplicate.
as §2, with “binding.” for “binding. The difference in Kd and Bmax between MRI180 and MR180V was tested with a t-test. In vitro results are shown as the mean±SD.”

[7] = biological target: T6, MRI180 (Homo sapiens, UniProt P08235); test: as above; settings: MRI180, mean±SD
T6 construct: expressed in transfected cells; host or cells: Cos-1 cells (African green monkey kidney)
T6 sequence (P08235 1-984): T1 sequence (P08235 1-984)
Protocol: as §3, §4
as §2, with “binding.” for “binding. The difference in Kd and Bmax between MRI180 and MR180V was tested with a t-test. In vitro results are shown as the mean±SD.”

[8] = three experiments pooled, read-out: dissociation constant (Kd) of cortisol binding

Row | EC50 [2] | EC50 [3] | EC50 [4] | EC50 [5] | maximal binding (Bmax) of cortisol [6] | Kd [6, 8] | maximal binding (Bmax) of cortisol [7] | Kd [7, 8] | Compound | difference in transactivation responses among the four MR haplotypes [1] | maximal luciferase expression (Emax) ([1]; Hap 1 (GA) and 4 (GG) compared with Hap 2 (CA) and 3 (CG))
1 | – | – | – | – | – | – | – | – | C[C@]12CCC(=O)C=C1CC[C@@H]1[C@@H]2[C@@H](O)C[C@]2(C=O)[C@@H](C(=O)CO)CC[C@@H]12 [Aldosterone] | did not show significantly different responses | –
2 | 39 pM | 17 pM | 19 pM | 73 pM | 7112±371 binding sites/cell | 930 ± 160 pM | 6539±499 binding sites/cell | 860 ± 200 pM | C[C@]12CCC(=O)C=C1CC[C@@H]1[C@@H]2[C@@H](O)C[C@@]2(C)[C@H]1CC[C@]2(O)C(=O)CO [cortisol] | significantly different responses | significant lower maximal luciferase expression (Emax)
